Assay results as given in patent US11413278B2, “Compounds and methods for promoting stress resistance” (priority 2015, dated 2022).
“Also recorded” adds a separate entry of the source. Where two headings read alike, the source gives them in different places.

Legend:
human PARP1 = target: T1, human PARP1 (Homo sapiens, UniProt P09874); experiment: PARP inhibitor assay (HT Fluorescent Homogeneous PARP Inhibition Assay Kit); type: biochemical; conditions: score
T1 construct: purchased Trevigen
Procedure: (§1) The assay was performed with the HT Fluorescent Homogeneous PARP Inhibition Assay Kit (Trevigen), following manufacturer's instructions. Briefly, nicotinamide adenine dinucleotide, human PARP1 and activated-DNA solution was added onto a 96-well plate. 54 repurchased small molecules, at 10 μM final concentration, were introduced onto the 96-well assay plate and incubated in a humid chamber at room temperature for 30 min in dark. Cycling mixture, with resazurin and cycling enzyme diaphorase, was then added and incubated further for 1 hr in dark. Reaction was terminated by adding the stopping buffer.
as §1, with “(Trevegen),” for “(Trevigen),”, “stopped” for “terminated”

FOXO3 = experiment: qPCR analysis of FOXO3-regulated genes; type: cell-based, human; conditions: for fold induction at 10 µM: Homo sapiens; for K = Sestrin induction: score
Method in brief: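 WI-38 cells treated with compound at 10 μM for 24 h, followed by Cells-to-Ct RT-qPCR of FOXO3 target genes normalised to B2M, PPIA and GAPDH. FOXO3 or NRF2 dependence tested by prior 10 nM siRNA knockdown (36 h transfection, compound added ~24 h after replating).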

[1] = system: PC12 cells expressing poly(Q)103-Htt-EGFP; experiment: Poly(Q) toxicity & viability analysis (cellular model of Huntington's disease); type: cell-based, rat; conditions: for M = Huntington's poly-Q toxicity attenuation: score; for K = Huntington's poly-Q toxicity attenuation: summary score
Procedure: Viability assays were performed as described before (Aiken et al., 2004). PC12 cells that stably express the inducible poly(Q)103-Htt-EGFP were grown in culture. […] Cell viability was analyzed 48 hrs later by measuring ATP content with CellTiter-Glo.
Toxic protein aggregation is a key feature of many age-related neurodegenerative diseases, including Alzheimer's and Huntington's disease (Caughey and Lansbury, 2003; Ross and Poirier, 2004). A number of animal models (Phillips et al., 2009) and cell models (Schlachetzki et al., 2013) have been established to study these diseases. For this purpose, PC12 rat pheochromocytoma cells display neuronal features and produce neurotransmitters and have been used extensively to study neuronal phenotypes, including synaptic transmission and neurological diseases. […] In this model, induced expression of poly(Q)103-Htt-EGFP could lead to the formation of aggregates and exert substantial toxicity in cells.

WI-38 cells = conditions: for PI cell-death imaging without H2O2 (indicating potential toxicity): Assay 8(k), without H2O2, at 10 uM; for PI-positive dead cells under normal conditions: control 0.4±0.2%; for Percentage of propidium iodide-positive dead cells (no H2O2 stress treatment), at 10 uM: negative control 0.41% ± 0.23%
Procedure: WI-38 cells were seeded on 384-well plates for 24 hrs and then incubated with small molecules for 24 hrs. […] Images were collected on an INCell Analyzer 2000 (GE) and analyzed with the Developer software.

[2] = 24 h, Assay 10(m), at 10 uM, qPCR, read-out: Induction of FOXO3-regulated genes: DDB1 normalized fold-change
[3] = 24 h, Assay 10(m), at 10 uM, qPCR, read-out: Induction of FOXO3-regulated genes: SESN1 normalized fold-change
[4] = WI-38, 24 h, read-out: SESN1 expression
[5] = 10 μM, 24 hrs, WI-38 cells, qPCR, normalized to B2M, n = 4, read-out: DDB1 expression, normalized fold change (FOXO3-regulated gene)
[6] = 10 μM, 24 hrs, WI-38 cells, qPCR, normalized to B2M, n = 4, read-out: SESN1 expression, normalized fold change (FOXO3-regulated gene)
[7] = WI-38 cells, 10 μM, 24 hrs, n=4, qPCR normalized by B2M, read-out: DDB1 Normalized fold change
[8] = WI-38 cells, 10 μM, 24 hrs, n=4, qPCR normalized by B2M, read-out: GADD45A Normalized fold change
[9] = WI-38 cells, 10 μM, 24 hrs, n=4, qPCR normalized by B2M, read-out: SESN1 Normalized fold change
[10] = fold change, qPCR, WI-38 cells, 10 μM, 24 hrs, read-out: Summary of effects on FOXO3-regulated genes: DDB1
[11] = fold change, qPCR, WI-38 cells, 10 μM, 24 hrs, read-out: Summary of effects on FOXO3-regulated genes: SESN1
[12] = qPCR, WI-38 cells, 10 μM, n=4, 24 hrs, normalized by B2M, read-out: CAT Normalized fold change
[13] = qPCR, WI-38 cells, 10 μM, n=4, 24 hrs, normalized by B2M, read-out: SOD2 Normalized fold change
[14] = qPCR, WI-38 cells, 10 μM, n=4, 24 hrs, normalized by B2M, read-out: TXNIP Normalized fold change

T1 sequence (P09874 whole entry): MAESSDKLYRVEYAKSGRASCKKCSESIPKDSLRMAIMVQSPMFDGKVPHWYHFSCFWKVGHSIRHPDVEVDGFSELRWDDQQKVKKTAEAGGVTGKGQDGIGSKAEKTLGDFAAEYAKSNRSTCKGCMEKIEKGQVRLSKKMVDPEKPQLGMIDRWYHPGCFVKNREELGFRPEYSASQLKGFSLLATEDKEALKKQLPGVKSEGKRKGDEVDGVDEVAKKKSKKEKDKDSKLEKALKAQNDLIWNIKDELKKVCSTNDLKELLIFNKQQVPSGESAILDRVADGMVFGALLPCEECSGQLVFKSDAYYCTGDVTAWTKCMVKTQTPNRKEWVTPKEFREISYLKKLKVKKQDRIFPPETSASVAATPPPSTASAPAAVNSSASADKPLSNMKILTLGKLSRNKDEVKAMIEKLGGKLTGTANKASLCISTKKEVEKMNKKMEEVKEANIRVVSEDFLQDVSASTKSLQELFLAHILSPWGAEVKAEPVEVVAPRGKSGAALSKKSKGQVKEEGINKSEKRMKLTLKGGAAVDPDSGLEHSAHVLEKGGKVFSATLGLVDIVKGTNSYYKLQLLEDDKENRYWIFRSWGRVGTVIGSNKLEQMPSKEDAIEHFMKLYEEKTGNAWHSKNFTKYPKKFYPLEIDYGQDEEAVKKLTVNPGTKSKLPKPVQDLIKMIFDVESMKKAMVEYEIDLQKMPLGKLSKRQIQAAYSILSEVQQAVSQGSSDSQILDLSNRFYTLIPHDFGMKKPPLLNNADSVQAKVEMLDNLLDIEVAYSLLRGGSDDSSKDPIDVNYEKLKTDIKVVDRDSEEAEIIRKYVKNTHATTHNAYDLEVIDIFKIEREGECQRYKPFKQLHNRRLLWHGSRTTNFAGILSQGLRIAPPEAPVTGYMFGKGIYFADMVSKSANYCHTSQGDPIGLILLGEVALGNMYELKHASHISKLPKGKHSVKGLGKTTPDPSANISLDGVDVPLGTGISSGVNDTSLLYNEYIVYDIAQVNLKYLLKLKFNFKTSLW

`O=C(Nc1cccc(Cl)c1)c1ccc([N+](=O)[O-])o1` [Gr-1D] was tested. Which “L = PARP inhibition” value (human PARP1) did it give?
Its value is 0.

What about the “E = Potential FOXO3 Activation” value (FOXO3; 2-point score) of the same compound?
The value was 0.

What about the fold induction at 10 µM (FOXO3; [2]) of the same compound?
Its fold induction at 10 µM is 1.13.

What about the fold induction at 10 µM (FOXO3; [3]) of the same compound?
The fold induction at 10 µM was 1.91.

And the fold induction at 10 µM (FOXO3; [4])?
The fold induction at 10 µM was over 1.5.

What about the fold induction at 10 µM (FOXO3; [5]) of the same compound?
The fold induction at 10 µM was 1.18.

And the fold induction at 10 µM (FOXO3; [6])?
Its fold induction at 10 µM is 1.73.

What about the fold induction at 10 µM (FOXO3; 10 μM, 24 hrs, WI-38 cells, qPCR, normalized to B2M, n = 4, read-out: TXNIP expression, normalized fold change (FOXO3-regulated gene)) of the same compound?
The fold induction at 10 µM was 0.62.

What about the fold induction at 10 µM (FOXO3; [7]) of the same compound?
The fold induction at 10 µM was 1.18.

And the fold induction at 10 µM (FOXO3; [8])?
The fold induction at 10 µM was 1.92.

What about the fold induction at 10 µM (FOXO3; [9]) of the same compound?
Its fold induction at 10 µM is 1.73.

And the fold induction at 10 µM (FOXO3; [10])?
Its fold induction at 10 µM is 1.18.

And the fold induction at 10 µM (FOXO3; [11])?
The fold induction at 10 µM was 1.73.

And the fold induction at 10 µM (FOXO3; fold change, qPCR, WI-38 cells, 10 μM, 24 hrs, read-out: Summary of effects on FOXO3-regulated genes: TXNIP)?
The fold induction at 10 µM was 0.62.

What about the fold induction at 10 µM (FOXO3; [12]) of the same compound?
The fold induction at 10 µM was 0.953.

And the fold induction at 10 µM (FOXO3; [13])?
Its fold induction at 10 µM is 1.42.

What about the fold induction at 10 µM (FOXO3; [14]) of the same compound?
The fold induction at 10 µM was 0.621.

And the “K = Sestrin induction” value (FOXO3)?
The value was 1.

What about the “E = Potential FOXO3 Activation” value (FOXO3; summary score) of the same compound?
The value was 0.

And the “M = Huntington's poly-Q toxicity attenuation” value [1]?
Its value is 0.

What about the “K = Huntington's poly-Q toxicity attenuation” value [1] of the same compound?
Its value is 0.

What about the “PI cell-death imaging without H2O2 (indicating potential toxicity)” value (WI-38 cells) of the same compound?
Its value is “YES”.

And the “Percentage of propidium iodide-positive (dead) cells under normal conditions (qualitative)” value (WI-38 cells; WI-38, no H2O2)?
Its value is “increased the percentage”.

And the “PI-positive dead cells under normal conditions” value (WI-38 cells; WI-38, no H2O2)?
The value was 4.2±1.4%.

What about the “Percentage of propidium iodide-positive dead cells (no H2O2 stress treatment), at 10 uM” value (WI-38 cells) of the same compound?
Its value is 4.16% ± 1.39%,.

What does the source list for `COC(=O)CCc1sc2c(c1[N+](=O)[O-])NC(=O)CCC2` [O20]?
L = PARP inhibition (human PARP1): 0; Induction of at least two of five FOXO3-regulated genes (SOD2, GADD45A, CAT, DDB1, TXNIP) (FOXO3; 10 μM, 24 hrs, WI-38): significant induction; also recorded: significant, induction; E = Potential FOXO3 Activation (FOXO3; 2-point score): 0; fold induction at 10 µM (FOXO3; 24 h, Assay 10(m), at 10 uM, qPCR, read-out: Induction of FOXO3-regulated genes: CAT normalized fold-change): 1.35; fold induction at 10 µM (FOXO3; [2]): 1.25; fold induction at 10 µM (FOXO3; [3]): 1.73; fold induction at 10 µM (FOXO3; [4]): > 1.5; fold induction at 10 µM (FOXO3; 10 μM, 24 hrs, WI-38 cells, qPCR, normalized to B2M, n = 4, read-out: CAT expression, normalized fold change (FOXO3-regulated gene)): 1.35; fold induction at 10 µM (FOXO3; [5]): 1.25; fold induction at 10 µM (FOXO3; [6]): 1.73; fold induction at 10 µM (FOXO3; [7]): 1.25; fold induction at 10 µM (FOXO3; [8]): 1.04; fold induction at 10 µM (FOXO3; [9]): 1.73; fold induction at 10 µM (FOXO3; fold change, qPCR, WI-38 cells, 10 μM, 24 hrs, read-out: Summary of effects on FOXO3-regulated genes: CAT): 1.35; fold induction at 10 µM (FOXO3; [10]): 1.25; fold induction at 10 µM (FOXO3; [11]): 1.73; fold induction at 10 µM (FOXO3; [12]): 1.35; fold induction at 10 µM (FOXO3; [13]): 1.09; fold induction at 10 µM (FOXO3; [14]): 1.12; K = Sestrin induction (FOXO3): 1; E = Potential FOXO3 Activation (FOXO3; summary score): 0; M = Huntington's poly-Q toxicity attenuation [1]: 0; K = Huntington's poly-Q toxicity attenuation [1]: 0; PI cell-death imaging without H2O2 (indicating potential toxicity) (WI-38 cells): YES; PI-positive dead cells under normal conditions (WI-38 cells; WI-38, no H2O2): 0.7%±0.3%; Percentage of propidium iodide-positive dead cells (no H2O2 stress treatment), at 10 uM (WI-38 cells): 0.73% ± 0.25%,

How did the “L = PARP inhibition” value (human PARP1) turn out when `O=C(/C=C/c1cn(-c2ccccc2)nc1-c1cccnc1)c1ccccc1` [Gr-6B] was run?
Its value is 0.

And the “E = Potential FOXO3 Activation” value (FOXO3; 2-point score)?
Its value is 0.

And the fold induction at 10 µM (FOXO3; [2])?
The fold induction at 10 µM was 1.19.

And the fold induction at 10 µM (FOXO3; [5])?
Its fold induction at 10 µM is 1.19.

And the fold induction at 10 µM (FOXO3; [7])?
Its fold induction at 10 µM is 1.19.

And the fold induction at 10 µM (FOXO3; [8])?
Its fold induction at 10 µM is 1.26.

And the fold induction at 10 µM (FOXO3; [9])?
The fold induction at 10 µM was 1.25.

And the fold induction at 10 µM (FOXO3; [10])?
The fold induction at 10 µM was 1.19.

And the fold induction at 10 µM (FOXO3; [12])?
The fold induction at 10 µM was 1.11.

And the fold induction at 10 µM (FOXO3; [13])?
Its fold induction at 10 µM is 1.14.

And the fold induction at 10 µM (FOXO3; [14])?
The fold induction at 10 µM was 0.861.

And the “K = Sestrin induction” value (FOXO3)?
Its value is 0.

And the “E = Potential FOXO3 Activation” value (FOXO3; summary score)?
Its value is 0.

What about the “Viability of PC12 cells upon induction of toxic poly(Q)103-Htt-EGFP aggregates” value ([1]; 2.5 μM, 5 μM, 10 μM and 20 μM) of the same compound?
Its value is “consistently increased the viability”.

What about the “Assay 20: Huntington's poly-Q toxicity attenuation” value ([1]; 10 uM, YES/NO) of the same compound?
Its value is “YES”.

And the “M = Huntington's poly-Q toxicity attenuation” value [1]?
The value was 1.

And the “K = Huntington's poly-Q toxicity attenuation” value [1]?
Its value is 1.

What about the “Percentage of propidium iodide-positive dead cells (no H2O2 stress treatment), at 10 uM” value (WI-38 cells) of the same compound?
The value was 0.46% ± 0.25%,.
